According to patent publication US20230026259A1, “CA2 COMPOSITIONS AND METHODS FOR TUNABLE REGULATION” (Obsidian Therapeutics, Inc., priority 2019, published 2023):

Tests used:
[1] = system: Activated T cells from human donor; assay: Cell surface CAR expression of CA2 regulated CAR constructs (CD19-Fc staining); format: cell-based; conditions: T cells, 10 μM ligand overnight, day 7 and 9
Protocol: CA2 DD described herein were operably linked to CARs to generate tunable CAR constructs. Activated T cells from human donor were transduced with 10 μL of lentivirus for indicated constructs. […] Cell surface CAR expression was detected the following day by staining the cells with 10 ug/mL CD19-Fc followed by an anti-human-BV421 conjugated secondary antibody. Histograms were plotted from a live cell gate. Similar experiments were also performed at day 8 and the cells were harvested at day 9. The data are shown in Table 20 as percentage CAR positive cells. The stabilization ratio was also calculated and is included in Table 20 as SR.
Activated T cells from human donor were transduced with 10 μL of lentivirus for indicated constructs. […] Cell surface CAR expression was detected the following day by staining the cells with 10 ug/mL CD19-Fc followed by an anti-human-BV421 conjugated secondary antibody. The percent of ligand induced CAR+ cells are plotted from a live cell gate relative to vehicle treated negative control cells.

[2] = Body weights after repeated daily doses of acetazolamide
Protocol: Body weights were measured for up to 12 days post daily repeated doses on days 0-4 and 8-11 (data not shown).
Dose responsiveness of OT-002175 was tested by measuring total flux in mice receiving repeated ligand dosing for up to 32 days post tumor implant (data not shown).

T cells = assay: CD40L expression of CA2 regulated CD40L constructs in T cells by FACS (dose response, time course); format: cell-based; conditions: 24 hours
Text: CD40L constructs regulated by Carbonic anhydrase DDs were generated and cloned into lentiviral vectors. Purified T cells were thawed and cultured with aCD3 aCD28 Dynabeads (in the ratio of 3 beads to 1 T cell).
The constructs were transduced in T cells the next day. […]

NIH3T3 cells = assay: Dose response of saturation library constructs to Acetazolamide or Celecoxib, GFP MFI by FACS; format: cell-based; conditions: Acetazolamide vs Celecoxib, 24 hours
Text: The MFI values obtained with Acetazolamide were much higher than the MFIs obtained with Celecoxib treatment.

human primary T cells = assay: IL15-dependent expansion: T cell numbers and CD4/CD8 ratio by flow cytometry; format: cell-based; conditions: continuous Acetazolamide in culture, 10 days
Protocol: To test IL15-dependent expansion, beads were removed on day 10 and cells were washed. […] The T cell numbers (Table 30) and the change in CD4/CD8 ratio (Table 31) were determined by flow cytometry.

[3] = Plasma concentration of acetazolamide after single and repeated oral doses; format: in vivo, mice; conditions: oral 200 mg/kg, up to 100 hr
[4] = CD4+ T cells with OT-001990, Acetazolamide 0.01 μM
[5] = CD4+ T cells with OT-001990, Acetazolamide 0.2 μM
[6] = CD4+ T cells with OT-001990, Acetazolamide 0.8 μM
[7] = CD4+ T cells with OT-001990, Acetazolamide 3.1 μM
[8] = CD4+ T cells with OT-001990, Acetazolamide 12.5 μM
[9] = CD4+ T cells with OT-001990, Acetazolamide 50 μM
[10] = CD8+ T cells with OT-001990, Acetazolamide 0.01 μM
[11] = CD8+ T cells with OT-001990, Acetazolamide 0.05 μM
[12] = CD8+ T cells with OT-001990, Acetazolamide 0.2 μM
[13] = CD8+ T cells with OT-001990, Acetazolamide 0.8 μM
[14] = CD8+ T cells with OT-001990, Acetazolamide 3.1 μM
[15] = CD8+ T cells with OT-001990, Acetazolamide 12.5 μM
[16] = CD8+ T cells with OT-001990, Acetazolamide 50 μM

daily 1 hr Cmax values after repeated doses [3]: do not elevate daily 1 hr Cmax values
SMILES: CC(=O)Nc1nnc(S(N)(=O)=O)s1 [Acetazolamide, reference compound]
CAR regulation compared between ligands [1]: Greater CAR regulation
effects on body weight in efficacy study ([2]; 30, 100 and 200 mg/kg acetazolamide): comparable effects on body weight
body weight changes from dosing ([2]; oral 200 mg/kg, daily repeated doses on days 0-4 and 8-11): begin to level off by the end of the first week of daily doses
CD40L MFI (T cells; [4]): 112
Percentage CD40L positive cells (T cells; [4]): 4.13%
Percentage CD40L positive cells (T cells; CD4+ T cells with OT-001990, Acetazolamide 0.05 μM): 5.44%
CD40L MFI (T cells; [5]): 185
Percentage CD40L positive cells (T cells; [5]): 10.3%
CD40L MFI (T cells; [6]): 481
Percentage CD40L positive cells (T cells; [6]): 45.6%
CD40L MFI (T cells; [7]): 840
Percentage CD40L positive cells (T cells; [7]): 69.3%
CD40L MFI (T cells; [8]): 2783
Percentage CD40L positive cells (T cells; [8]): 90.3%
CD40L MFI (T cells; [9]): 3728
Percentage CD40L positive cells (T cells; [9]): 91.1%
CD40L MFI (T cells; [10]): 105
Percentage CD40L positive cells (T cells; [10]): 0.59%
CD40L MFI (T cells; [11]): 104
Percentage CD40L positive cells (T cells; [11]): 0.44%
CD40L MFI (T cells; [12]): 136
Percentage CD40L positive cells (T cells; [12]): 1.48%
CD40L MFI (T cells; [13]): 307
Percentage CD40L positive cells (T cells; [13]): 25.2%
CD40L MFI (T cells; [14]): 380
Percentage CD40L positive cells (T cells; [14]): 41.2%
CD40L MFI (T cells; [15]): 1599
Percentage CD40L positive cells (T cells; [15]): 77.2%
CD40L MFI (T cells; [16]): 2184
Percentage CD40L positive cells (T cells; [16]): 80.7%
MFI values obtained with one ligand compared with the other (NIH3T3 cells): much higher
T cell expansion (human primary T cells): 3.6 fold
